# Experimental data from patent US11690860B2, “Treatment of HCV infected patients with cirrhosis” (Atea Pharmaceuticals, Inc., priority 2018, dated 2023).
# Entries after “also recorded” stand apart in the source; their conditions may differ. Like-named read-outs stand apart in the source and are kept apart here.
# Tests used:
# [1] = Plasma pharmacokinetics of Compound 1 and metabolite 1-7 (LC-MS/MS) in Parts C, D and E; assay type: in vivo, human; conditions: for AUC Day 1 (AUCinf for Compound 1) / Cmax / half-life / Tmax / AUC SS (AUCinf for Compound 1): n=6; for Cmax / half-life / Tmax: human, in vivo
# Description: Doses were administered as the Compound 2 salt base. The free base Compound 1 equivalent is often given in parenthesis.
# Part C was a randomized, double-blind, placebo-controlled MAD study divided into three cohorts. […] The dose escalation only proceeded following satisfactory review of the data.
# HCV-infected patients were treatment-naïve with HCV RNA ≥5 log 10 IU/mL. HCV RNA was quantified using COBAS® AmpliPrep TaqMAN® v2.0 with LLQ of 15 IU/mL. Plasma drug levels were measured using LC-MS/MS. […] Cirrhosis was confirmed by prior liver biopsy or Fibroscan >12.5 kPa. […] Mean ages of enrolled subjects were 44, 39, and 56 years in the non-cirrhotic GT1b 600 mg dose cohort, non-cirrhotic GT3 cohort, and the cirrhotic cohort, respectively.
# Plasma levels of metabolite 1-7 were measured using LC-MS/MS.
# [2] = system: HCV GT2 replicons; assay: EC95 in replicons containing HCV constructs of clinical isolates, GT2; assay type: cell-based; conditions: HCV GT2, expressed as equivalents of metabolite 1-7
# Description: (§1) For rapidly-replicating viruses such as HCV, maintenance of antiviral activity throughout inter-dose time intervals optimizes efficacy by reducing chances for recrudescent viral replication during inter-dose trough periods. […] In those cohorts receiving 600 mg QD, ˜30% of subjects achieved HCV RNA below the lower limit of quantitation with only seven days of therapy.
# [3] = system: HCV GT3 replicons; assay: EC95 in replicons containing HCV constructs of clinical isolates, GT3; assay type: cell-based; conditions: HCV GT3, expressed as equivalents of metabolite 1-7
# Description: as §1
# [4] = Part C, daily dosing for 7 days
compound,measurement,setting,value
"CNc1nc(N)nc2c1ncn2[C@@H]1O[C@H](CO[P@@](=O)(N[C@@H](C)C(=O)OC(C)C)Oc2ccccc2)[C@@H](O)[C@@]1(C)F [Compound 1, isopropyl((S)-(((2R,3R,4R,5R)-5-(2-amino-6-(methylamino)-9H-purin-9-yl)-4-fluoro-3-hydroxy-4-methyltetrahydrofuran-2-yl)methoxy)(phenoxy)phosphoryl)-L-alaninate]",PK in cirrhotic compared with non-cirrhotic subjects,"[1]; 600 mg QD of Compound 2, Parts C/D vs Part E",comparable
same,dose proportionality of plasma exposure (peak and total),"[1]; Part C, 150 to 600 mg Compound 2",slightly more than dose proportional from 150 mg to 300 mg and mostly dose proportional thereafter
same,AUC Day 1 (AUCinf for Compound 1),"[1]; Part C, NC GT1b, 150 mg/d Compound 2 QD",492 ± 141 ng/mLxh
same,AUC Day 1 (AUCinf for Compound 1),"[1]; Part C, NC GT1b, 300 mg/d Compound 2 QD",1947 ± 1120 ng/mLxh
same,AUC Day 1 (AUCinf for Compound 1),"[1]; Part C, NC GT1b, 600 mg/d Compound 2 QD",3335 ± 1502 ng/mLxh
same,accumulation,[1]; [4],did not accumulate over time
same,half-life (in words),[1]; [4],short half-life
same,AUC Day 1 (AUCinf for Compound 1),"[1]; Part D, NC GT3, 600 mg/d Compound 2 QD",3333 ± 1241 ng/mLxh
same,AUC Day 1 (AUCinf for Compound 1),"[1]; Part E, Child-Pugh A cirrhotic, 600 mg/d Compound 2 QD",3323 ± 1467 ng/mLxh
same,absorption,"[1]; after administration of Compound 2, fasted state",rapidly and well-absorbed; also recorded: quickly absorbed
same,estimated fraction absorbed,[1]; based on urine recovery,~50%
same,Cmax,"[1]; 150 mg/d, Part C, NC GT1b, 150 mg/d Compound 2 QD, read-out: Cmax Day 1",573 ± 280 ng/mL
same,half-life,"[1]; 150 mg/d, Part C, NC GT1b, 150 mg/d Compound 2 QD, read-out: T1/2 Day 1 (converted)",37.2 min
same,Tmax,"[1]; 150 mg/d, Part C, NC GT1b, 150 mg/d Compound 2 QD, read-out: Tmax Day 1",30 min
same,Cmax,"[1]; 150 mg/d, steady state, Part C, NC GT1b, 150 mg/d Compound 2 QD, read-out: Cmax SS",462 ± 409 ng/mL
same,half-life,"[1]; 150 mg/d, steady state, Part C, NC GT1b, 150 mg/d Compound 2 QD, read-out: T1/2 SS (converted)",38.4 min
same,Tmax,"[1]; 150 mg/d, steady state, Part C, NC GT1b, 150 mg/d Compound 2 QD, read-out: Tmax SS",60 min
same,Cmax,"[1]; 300 mg/d, Part C, NC GT1b, 300 mg/d Compound 2 QD, read-out: Cmax Day 1",2280 ± 893 ng/mL
same,half-life,"[1]; 300 mg/d, Part C, NC GT1b, 300 mg/d Compound 2 QD, read-out: T1/2 Day 1 (converted)",48 min
same,Tmax,"[1]; 300 mg/d, Part C, NC GT1b, 300 mg/d Compound 2 QD, read-out: Tmax Day 1",30 min
same,Cmax,"[1]; 300 mg/d, steady state, Part C, NC GT1b, 300 mg/d Compound 2 QD, read-out: Cmax SS",1830 ± 1310 ng/mL
same,half-life,"[1]; 300 mg/d, steady state, Part C, NC GT1b, 300 mg/d Compound 2 QD, read-out: T1/2 SS (converted)",43.8 min
same,Tmax,"[1]; 300 mg/d, steady state, Part C, NC GT1b, 300 mg/d Compound 2 QD, read-out: Tmax SS",30 min
same,Cmax,"[1]; 600 mg/d, Part C, NC GT1b, 600 mg/d Compound 2 QD, read-out: Cmax Day 1",4210 ± 2300 ng/mL
same,half-life,"[1]; 600 mg/d, Part C, NC GT1b, 600 mg/d Compound 2 QD, read-out: T1/2 Day 1 (converted)",51.6 min
same,Tmax,"[1]; 600 mg/d, Part C, NC GT1b, 600 mg/d Compound 2 QD, read-out: Tmax Day 1",30 min
same,Cmax,"[1]; 600 mg/d, Part D, NC GT3, 600 mg/d Compound 2 QD, read-out: Cmax Day 1",3970 ± 1940 ng/mL
same,half-life,"[1]; 600 mg/d, Part D, NC GT3, 600 mg/d Compound 2 QD, read-out: T1/2 Day 1 (converted)",43.8 min
same,Tmax,"[1]; 600 mg/d, Part D, NC GT3, 600 mg/d Compound 2 QD, read-out: Tmax Day 1",30 min
same,Cmax,"[1]; 600 mg/d, Part E, Child-Pugh A cirrhotic, 600 mg/d Compound 2 QD, read-out: Cmax Day 1",3410 ± 2180 ng/mL
same,half-life,"[1]; 600 mg/d, Part E, Child-Pugh A cirrhotic, 600 mg/d Compound 2 QD, read-out: T1/2 Day 1 (converted)",51.6 min
same,Tmax,"[1]; 600 mg/d, Part E, Child-Pugh A cirrhotic, 600 mg/d Compound 2 QD, read-out: Tmax Day 1",30 min
same,Cmax,"[1]; 600 mg/d, steady state, Part C, NC GT1b, 600 mg/d Compound 2 QD, read-out: Cmax SS",3600 ± 1740 ng/mL
same,half-life,"[1]; 600 mg/d, steady state, Part C, NC GT1b, 600 mg/d Compound 2 QD, read-out: T1/2 SS (converted)",51 min
same,Tmax,"[1]; 600 mg/d, steady state, Part C, NC GT1b, 600 mg/d Compound 2 QD, read-out: Tmax SS",30 min
same,Cmax,"[1]; 600 mg/d, steady state, Part D, NC GT3, 600 mg/d Compound 2 QD, read-out: Cmax SS",4140 ± 2280 ng/mL
same,half-life,"[1]; 600 mg/d, steady state, Part D, NC GT3, 600 mg/d Compound 2 QD, read-out: T1/2 SS (converted)",49.8 min
same,Tmax,"[1]; 600 mg/d, steady state, Part D, NC GT3, 600 mg/d Compound 2 QD, read-out: Tmax SS",30 min
same,Cmax,"[1]; 600 mg/d, steady state, Part E, Child-Pugh A cirrhotic, 600 mg/d Compound 2 QD, read-out: Cmax SS",3190 ± 2080 ng/mL
same,half-life,"[1]; 600 mg/d, steady state, Part E, Child-Pugh A cirrhotic, 600 mg/d Compound 2 QD, read-out: T1/2 SS (converted)",48.6 min
same,Tmax,"[1]; 600 mg/d, steady state, Part E, Child-Pugh A cirrhotic, 600 mg/d Compound 2 QD, read-out: Tmax SS",30 min
same,AUC SS (AUCinf for Compound 1),"[1]; steady state, Part C, NC GT1b, 150 mg/d Compound 2 QD",475 ± 301 ng/mLxh
same,AUC SS (AUCinf for Compound 1),"[1]; steady state, Part C, NC GT1b, 300 mg/d Compound 2 QD",1510 ± 976 ng/mLxh
same,AUC SS (AUCinf for Compound 1),"[1]; steady state, Part C, NC GT1b, 600 mg/d Compound 2 QD",4036 ± 2093 ng/mLxh
same,AUC SS (AUCinf for Compound 1),"[1]; steady state, Part D, NC GT3, 600 mg/d Compound 2 QD",3754 ± 2275 ng/mLxh
same,AUC SS (AUCinf for Compound 1),"[1]; steady state, Part E, Child-Pugh A cirrhotic, 600 mg/d Compound 2 QD",3527 ± 1605 ng/mLxh
same,EC95,[2],~0.012 µg/mL
same,EC95,[3],~0.018 µg/mL
